Experimental data taken from patent publication US4753953A, “Pyridonecarboxylic acid derivatives and antibacterial pharmaceutical compositions thereof” (priority 1985, dated 1988).
≈ marks a conversion by molar mass, not a printed value. Like-named read-outs stand apart in the source and are kept apart here.

How the values were obtained:
[1] = test system: Bacillus subtilis PCI 219; assay: MIC, in vitro antibacterial activity (standard strains); format: cell-based; conditions: Bacillus subtilis, PCI219; 10^6 cells/ml; Gram +; read-out: MIC
[2] = test system: Staphylococcus aureus 209 P; assay: as above; format: cell-based; conditions: Staphylococcus aureus, 209P; 10^6 cells/ml; Gram +; read-out: MIC
[3] = test system: S. aureus Smith; assay: as above; format: cell-based, Staphylococcus aureus; conditions: Staphylococcus aureus; 10^6 cells/ml; Gram +; read-out: MIC
[4] = test system: S. epidermidis IID 866; assay: as above; format: cell-based; conditions: Staphylococcus epidermidis, IID866; 10^6 cells/ml; Gram +; read-out: MIC
[5] = test system: Streptococcus pyogenes (S-8); assay: as above; format: cell-based; conditions: Streptococcus pyogenes; 10^6 cells/ml; Gram +; read-out: MIC
[6] = test system: S. pneumoniae IID 552; assay: as above; format: cell-based; conditions: Streptococcus pneumoniae, IID552; 10^6 cells/ml; Gram +; read-out: MIC
[7] = test system: E. faecalis IID 682; assay: as above; format: cell-based; conditions: Enterococcus faecalis, IID682; 10^6 cells/ml; Gram +; read-out: MIC
[8] = test system: E. coli ATCC 10536; assay: as above; format: cell-based, Escherichia coli; conditions: Escherichia coli, ATCC10536; 10^6 cells/ml; Gram -; read-out: MIC
[9] = test system: E. coli ML 4707; assay: as above; format: cell-based, Escherichia coli; conditions: Escherichia coli, ML4707, 10^6 cells/ml; Gram -; Table 1; read-out: MIC
[10] = test system: Proteus vulgaris IFO 3167; assay: as above; format: cell-based; conditions: Proteus vulgaris, IFO3167; 10^6 cells/ml; Gram -; read-out: MIC
[11] = test system: K. pneumoniae 1-220S; assay: as above; format: cell-based, Klebsiella pneumoniae; conditions: Klebsiella pneumoniae, 1220S; 10^6 cells/ml; Gram -; read-out: MIC
[12] = test system: Citrobacter freundii IID 976; assay: as above; format: cell-based; conditions: Citrobacter freundii, IID976; 10^6 cells/ml; Gram -; read-out: MIC
[13] = test system: Shigella sonnei IID 969; assay: as above; format: cell-based; conditions: Shigella sonnei, IID969; 10^6 cells/ml; Gram -; read-out: MIC
Procedure: Minimal inhibitory concentrations (MICs) were determined in accordance with the method recommended by Japan Society of Chemotherapy.

[14] = test system: Salmonella enteritidis IID 604; assay: as above; format: cell-based; conditions: Salmonella enterica; 10^6 cells/ml; Gram -; read-out: MIC
[15] = test system: Pseudomonas aeruginosa V-1; assay: as above; format: cell-based; conditions: Pseudomonas aeruginosa, V1; 10^6 cells/ml; Gram -; read-out: MIC
[16] = test system: P. cepacia GIFU 518; assay: as above; format: cell-based; conditions: Burkholderia cepacia, GIFU518
[17] = test system: Yersinia enterocolitica IID 981; assay: as above; format: cell-based; conditions: Yersinia enterocolitica, IID981; 10^6 cells/ml; Gram -; read-out: MIC
[18] = test system: Acinetobacter anitratus IID 876; assay: as above; format: cell-based; conditions: Acinetobacter calcoaceticus, IID876; 10^6 cells/ml; Gram -; read-out: MIC
[19] = test system: Alcaligenes faecalis 0114002; assay: as above; format: cell-based; conditions: Alcaligenes faecalis, 0114002; 10^6 cells/ml; Gram -; read-out: MIC
[20] = test system: Bacteroides fragilis GM 7000; assay: as above; format: cell-based; conditions: Bacteroides fragilis, GM7000; 10^6 cells/ml; Gram -; read-out: MIC
[21] = test system: B. fragilis 0558; assay: as above; format: cell-based, Bacteroides fragilis; conditions: Bacteroides fragilis, 0558; 10^6 cells/ml; Gram -; read-out: MIC
[22] = test system: B. fragilis 25285; assay: as above; format: cell-based, Bacteroides fragilis; conditions: Bacteroides fragilis, 25285; 10^6 cells/ml; Gram -; read-out: MIC
[23] = test system: B. distasonis 8503; assay: as above; format: cell-based; conditions: Parabacteroides distasonis, 8503; 10^6 cells/ml; Gram -; read-out: MIC
[24] = test system: Fusobacterium mortiferum 4249; assay: as above; format: cell-based; conditions: Fusobacterium mortiferum, 4249; 10^6 cells/ml; Gram -; read-out: MIC
[25] = test system: F. necrophorum S-45; assay: as above; format: cell-based; conditions: Fusobacterium necrophorum, S45; 10^6 cells/ml; Gram -; read-out: MIC
[26] = test system: F. varium KYA 8501; assay: as above; format: cell-based; conditions: Fusobacterium varium, KYA8501; 10^6 cells/ml; Gram -; read-out: MIC
[27] = test system: E. limosum KYA 8486; assay: as above; format: cell-based; conditions: Eubacterium limosum, KYA8486; 10^6 cells/ml; Gram +; read-out: MIC
[28] = test system: Propionibacterium acens 11828; assay: as above; format: cell-based; conditions: Propionibacterium, 11828; 10^6 cells/ml; Gram +; read-out: MIC
[29] = test system: Clostridium difficile I-E; assay: as above; format: cell-based; conditions: Clostridioides difficile; 10^6 cells/ml; Gram +
[30] = test system: C. perfringens KYA 13123; assay: microbe, parasite or virus in culture; format: cell-based; conditions: Clostridium perfringens, KYA13123
[31] = test system: C. ramosum; assay: MIC, in vitro antibacterial activity (standard strains); format: cell-based; conditions: Thomasclavelia ramosa; 10^6 cells/ml; Gram +; read-out: MIC
[32] = test system: Peptostreptococcus anaerobius KYA 27337; assay: as above; format: cell-based; conditions: Peptostreptococcus anaerobius, KYA27337; 10^6 cells/ml; Gram +; read-out: MIC
[33] = test system: Veillonella parvula KYA 10790; assay: as above; format: cell-based; conditions: Veillonella parvula, KYA10790; 10^6 cells/ml; Gram -; read-out: MIC

Compound	MIC [1]	MIC [2]	MIC [3]	MIC [4]	MIC [5]	MIC [6]	MIC [7]	MIC [8]	MIC [9]	MIC [10]	MIC [11]	MIC [12]	MIC [13]	MIC [14]	MIC [15]	MIC [17]	MIC [18]	MIC [19]	MIC [20]	MIC [21]	also measured
CNCC1CN(c2c(F)cc3c(=O)c(C(=O)O)cn(C4CC4)c3c2Cl)CC1C (stereo not drawn) [Example 12, 8-Chloro-1-cyclopropyl-6-fluoro-1,4-dihydro-7-(3-methylaminomethyl-4-methyl-1-pyrrolidinyl)-4-oxo-3-quinolinecarboxylic acid]	0.0125 µg/mL (≈ 0.0306 µM)	0.05 µg/mL (≈ 0.123 µM)	0.05 µg/mL (≈ 0.123 µM)	0.05 µg/mL (≈ 0.123 µM)	0.05 µg/mL (≈ 0.123 µM)	0.05 µg/mL (≈ 0.123 µM)	0.05 µg/mL (≈ 0.123 µM)	0.05 µg/mL (≈ 0.123 µM)	0.025 µg/mL (≈ 0.0613 µM)	0.05 µg/mL (≈ 0.123 µM)	0.1 µg/mL (≈ 0.245 µM)	0.05 µg/mL (≈ 0.123 µM)	0.025 µg/mL (≈ 0.0613 µM)	0.1 µg/mL (≈ 0.245 µM)	0.39 µg/mL (≈ 0.956 µM)	0.1 µg/mL (≈ 0.245 µM)	0.2 µg/mL (≈ 0.49 µM)	0.39 µg/mL (≈ 0.956 µM)	0.2 µg/mL (≈ 0.49 µM)	0.1 µg/mL (≈ 0.245 µM)	MIC ([16]; 10^6 cells/ml, Gram -, read-out: MIC): 0.78 µg/mL (≈ 1.91 µM); MIC [22]: 0.1 µg/mL (≈ 0.245 µM); MIC [23]: 0.39 µg/mL (≈ 0.956 µM); MIC [24]: 0.2 µg/mL (≈ 0.49 µM); MIC [25]: 0.2 µg/mL (≈ 0.49 µM); MIC [26]: 0.78 µg/mL (≈ 1.91 µM); MIC [27]: 0.39 µg/mL (≈ 0.956 µM); MIC [28]: 0.78 µg/mL (≈ 1.91 µM); MIC [29]: 0.2 µg/mL; MIC [30]: 0.1 µg/mL (≈ 0.245 µM); MIC [31]: 0.39 µg/mL (≈ 0.956 µM); MIC [32]: 0.05 µg/mL (≈ 0.123 µM); MIC [33]: 0.39 µg/mL (≈ 0.956 µM)
CNCC1CN(c2c(F)cc3c(=O)c(C(=O)O)cn(C4CC4)c3c2F)CC1C (stereo not drawn) [Example 13, 1-Cyclopropyl-6,8-difluoro-1,4-dihydro-7-(3-methylaminomethyl-4-methyl-1-pyrrolidinyl)-4-oxo-3-quinolinecarboxylic acid]	0.025 µg/mL (≈ 0.0639 µM)	0.05 µg/mL (≈ 0.128 µM)	0.05 µg/mL (≈ 0.128 µM)	0.05 µg/mL (≈ 0.128 µM)	0.1 µg/mL (≈ 0.255 µM)	0.1 µg/mL (≈ 0.255 µM)	0.2 µg/mL (≈ 0.511 µM)	0.05 µg/mL (≈ 0.128 µM)	0.05 µg/mL (≈ 0.128 µM)	0.05 µg/mL (≈ 0.128 µM)	0.2 µg/mL (≈ 0.511 µM)	0.05 µg/mL (≈ 0.128 µM)	0.05 µg/mL (≈ 0.128 µM)	0.1 µg/mL (≈ 0.255 µM)	0.39 µg/mL (≈ 0.996 µM)	0.1 µg/mL (≈ 0.255 µM)	0.1 µg/mL (≈ 0.255 µM)	0.78 µg/mL (≈ 1.99 µM)	0.78 µg/mL (≈ 1.99 µM)	0.78 µg/mL (≈ 1.99 µM)	MIC [16]: 0.78 µg/mL (≈ 1.99 µM); MIC [22]: 0.78 µg/mL (≈ 1.99 µM); MIC [23]: 3.13 µg/mL (≈ 8 µM); MIC [24]: 0.39 µg/mL (≈ 0.996 µM); MIC [25]: 0.39 µg/mL (≈ 0.996 µM); MIC [26]: 1.56 µg/mL (≈ 3.99 µM); MIC [27]: 1.56 µg/mL (≈ 3.99 µM); MIC [28]: 1.56 µg/mL (≈ 3.99 µM); MIC [29]: 0.78 µg/mL; MIC [30]: 0.2 µg/mL (≈ 0.511 µM); MIC [31]: 0.78 µg/mL (≈ 1.99 µM); MIC [32]: 0.2 µg/mL (≈ 0.511 µM); MIC [33]: 0.78 µg/mL (≈ 1.99 µM)
CCn1cc(C(=O)O)c(=O)c2cc(F)c(N3C[C@@H](N)[C@@H](C)C3)c(F)c21 (relative stereo) [Example 22, 7-(cis-3-Amino-4-methyl-1-pyrrolidinyl)-1-ethyl-6,8-difluoro-1,4-dihydro-4-oxo-3-quinolinecarboxylic acid]	0.05 µg/mL (≈ 0.142 µM)	0.1 µg/mL (≈ 0.285 µM)	0.2 µg/mL (≈ 0.569 µM)	0.2 µg/mL (≈ 0.569 µM)	0.78 µg/mL (≈ 2.22 µM)	0.78 µg/mL (≈ 2.22 µM)	0.78 µg/mL (≈ 2.22 µM)	0.05 µg/mL (≈ 0.142 µM)	0.05 µg/mL (≈ 0.142 µM)	0.05 µg/mL (≈ 0.142 µM)	0.1 µg/mL (≈ 0.285 µM)	0.05 µg/mL (≈ 0.142 µM)	0.1 µg/mL (≈ 0.285 µM)	0.1 µg/mL (≈ 0.285 µM)	0.39 µg/mL (≈ 1.11 µM)	0.1 µg/mL (≈ 0.285 µM)	0.39 µg/mL (≈ 1.11 µM)	1.56 µg/mL (≈ 4.44 µM)	3.13 µg/mL (≈ 8.91 µM)	1.56 µg/mL (≈ 4.44 µM)	MIC [16]: 0.78 µg/mL (≈ 2.22 µM); MIC [22]: 1.56 µg/mL (≈ 4.44 µM); MIC [23]: 3.13 µg/mL (≈ 8.91 µM); MIC [24]: 1.56 µg/mL (≈ 4.44 µM); MIC [25]: 3.13 µg/mL (≈ 8.91 µM); MIC [26]: 6.25 µg/mL (≈ 17.8 µM); MIC [27]: 6.25 µg/mL (≈ 17.8 µM); MIC [28]: 25 µg/mL (≈ 71.2 µM); MIC [29]: 6.25 µg/mL; MIC [30]: 0.78 µg/mL (≈ 2.22 µM); MIC [31]: 6.25 µg/mL (≈ 17.8 µM); MIC [32]: 3.13 µg/mL (≈ 8.91 µM); MIC [33]: 0.78 µg/mL (≈ 2.22 µM)
